# Where a SMILES comes first, the peptide text is derived from it.
# What was measured:
# [1] = tested on: Staphylococcus aureus; assay: Antibacterial activity against Staphylococcus aureus ATCC 25923 after 16 hrs by broth microdilution method; type: functional; details: ATCC 25923, 16 h
# [2] = tested on: Bacillus spizizenii; assay: Antibacterial activity against Bacillus subtilis ATCC 6633 after 16 hrs by broth microdilution method; type: functional; details: ATCC 6633, 16 h
# [3] = tested on: Escherichia coli; assay: Antibacterial activity against Escherichia coli ATCC 25922 after 16 hrs by broth microdilution method; type: functional; details: ATCC 25922, 16 h
# [4] = Toxicity against human erythrocytes assessed as hemolysis after 1 hr by spectrophotometric analysis; type: cell-based, Erythrocyte
# [5] = Therapeutic index, ratio of HC50 for human erythrocytes to MIC for Bacillus subtilis ATCC 6633; details: read-out: TI
# [6] = Therapeutic index, ratio of HC50 for human erythrocytes to MIC for Staphylococcus aureus ATCC 25923; details: read-out: TI
# [7] = Solubility of the compound in water at 40 mg sonicated for 15 mins at 25 degC measured after 5 hrs; type: physicochemical
Compound,MIC [1] [µM],MIC [2] [µM],MIC [3] [µM],HC50 at 1 h [4] [µM],selectivity ratio [5],selectivity ratio [6],solubility at 5 h [7] [mg/mL]
N=C(N)NCCC[C@H](NC(=O)[C@H](CCCNC(=N)N)NC(=O)[C@@H](N)CCCNC(=N)N)C(=O)O (H-Arg-Arg-Arg-OH),> 1030,> 1030,> 1300,,,,
C=C(C)[C@@H]1CC[C@]2(C(=O)O)CC[C@]3(C)[C@H](CC[C@@H]4[C@@]5(C)CC[C@H](OC(=O)CCc6cn(CC(=O)N[C@@H](CCCNC(=N)N)C(=O)N[C@@H](CCCNC(=N)N)C(=O)N[C@@H](CCCNC(=N)N)C(=O)N[C@@H](CCCNC(=N)N)C(=O)N[C@@H](CCCNC(=N)N)C(=O)O)nn6)C(C)(C)[C@@H]5CC[C@]43C)[C@@H]12,2.7,2.7,> 88,323,117,117,
N=C(N)NCCC[C@H](NC(=O)[C@H](CCCNC(=N)N)NC(=O)[C@H](CCCNC(=N)N)NC(=O)[C@H](CCCNC(=N)N)NC(=O)[C@H](CCCNC(=N)N)NC(=O)[C@H](CCCNC(=N)N)NC(=O)[C@H](CCCNC(=N)N)NC(=O)[C@@H](N)CCCNC(=N)N)C(=O)O,24.6,12.3,197,,,,
C=C(C)[C@@H]1CC[C@]2(C(=O)O)CC[C@]3(C)[C@H](CC[C@@H]4[C@@]5(C)CC[C@H](OC(=O)CCc6cn(CC(=O)N[C@@H](CCCNC(=N)N)C(=O)N[C@@H](CCCNC(=N)N)C(=O)O)nn6)C(C)(C)[C@@H]5CC[C@]43C)[C@@H]12,8.2,4.1,> 131,> 841,> 205,> 103,
C=C(C)[C@@H]1CC[C@]2(C(=O)O)CC[C@]3(C)[C@H](CC[C@@H]4[C@@]5(C)CC[C@H](OC(=O)CCc6cn(CC(=O)N[C@@H](CCCNC(=N)N)C(=O)O)nn6)C(C)(C)[C@@H]5CC[C@]43C)[C@@H]12,> 157,19.6,> 157,> 1010,> 51,,
C[C@H]1[C@H](C)CC[C@]2(C(=O)OCc3cn(CC(=O)N[C@@H](CCCNC(=N)N)C(=O)N[C@@H](CCCNC(=N)N)C(=O)O)nn3)CC[C@]3(C)C(=CC[C@@H]4[C@@]5(C)CC[C@H](O)C(C)(C)[C@@H]5CC[C@]43C)[C@H]12,4.3,4.3,> 138,49,11,11,
C[C@H]1[C@H](C)CC[C@]2(C(=O)OCc3cn(CC(=O)N[C@@H](CCCNC(=N)N)C(=O)N[C@@H](CCCNC(=N)N)C(=O)N[C@@H](CCCNC(=N)N)C(=O)N[C@@H](CCCNC(=N)N)C(=O)N[C@@H](CCCNC(=N)N)C(=O)N[C@@H](CCCNC(=N)N)C(=O)N[C@@H](CCCNC(=N)N)C(=O)N[C@@H](CCCNC(=N)N)C(=O)O)nn3)CC[C@]3(C)C(=CC[C@@H]4[C@@]5(C)CC[C@H](O)C(C)(C)[C@@H]5CC[C@]43C)[C@H]12,4.2,4.2,> 68,41,10,10,
C=C(C)[C@@H]1CC[C@]2(C(=O)O)CC[C@]3(C)[C@H](CC[C@@H]4[C@@]5(C)CC[C@H](OC(=O)CCc6cn(CC(=O)N[C@@H](CCCNC(=N)N)C(=O)N[C@@H](CCCNC(=N)N)C(=O)N[C@@H](CCCNC(=N)N)C(=O)N[C@@H](CCCNC(=N)N)C(=O)N[C@@H](CCCNC(=N)N)C(=O)N[C@@H](CCCNC(=N)N)C(=O)N[C@@H](CCCNC(=N)N)C(=O)N[C@@H](CCCNC(=N)N)C(=O)O)nn6)C(C)(C)[C@@H]5CC[C@]43C)[C@@H]12,4.1,4.1,> 66,> 424,> 103,> 103,
C[C@H]1[C@H](C)CC[C@]2(C(=O)OCc3cn(CC(=O)N[C@@H](CCCNC(=N)N)C(=O)N[C@@H](CCCNC(=N)N)C(=O)N[C@@H](CCCNC(=N)N)C(=O)O)nn3)CC[C@]3(C)C(=CC[C@@H]4[C@@]5(C)CC[C@H](O)C(C)(C)[C@@H]5CC[C@]43C)[C@H]12,3.7,3.7,14.7,29,8,8,
C[C@H]1[C@H](C)CC[C@]2(C(=O)OCc3cn(CC(=O)N[C@@H](CCCNC(=N)N)C(=O)N[C@@H](CCCNC(=N)N)C(=O)N[C@@H](CCCNC(=N)N)C(=O)N[C@@H](CCCNC(=N)N)C(=O)N[C@@H](CCCNC(=N)N)C(=O)O)nn3)CC[C@]3(C)C(=CC[C@@H]4[C@@]5(C)CC[C@H](O)C(C)(C)[C@@H]5CC[C@]43C)[C@H]12,5.7,2.8,> 91,25,11,6,
C=C(C)[C@@H]1CC[C@]2(C(=O)OCc3cn(CC(=O)N[C@@H](CCCNC(=N)N)C(=O)N[C@@H](CCCNC(=N)N)C(=O)N[C@@H](CCCNC(=N)N)C(=O)N[C@@H](CCCNC(=N)N)C(=O)N[C@@H](CCCNC(=N)N)C(=O)N[C@@H](CCCNC(=N)N)C(=O)N[C@@H](CCCNC(=N)N)C(=O)N[C@@H](CCCNC(=N)N)C(=O)O)nn3)CC[C@]3(C)[C@H](CC[C@@H]4[C@@]5(C)CC[C@H](O)C(C)(C)[C@@H]5CC[C@]43C)[C@@H]12,4.2,4.2,> 68,,,,
"C[C@H]1[C@H](C)CCC2(C(=O)O)CC[C@]3(C)C(=CC[C@@H]4[C@@]5(C)CC[C@H](OC(=O)CCc6cn(CC(=O)N[C@@H](CCCNC(=N)N)C(=O)N[C@@H](CCCNC(=N)N)C(=O)N[C@@H](CCCNC(=N)N)C(=O)N[C@@H](CCCNC(=N)N)C(=O)N[C@@H](CCCNC(=N)N)C(=O)N[C@@H](CCCNC(=N)N)C(=O)N[C@@H](CCCNC(=N)N)C(=O)N[C@@H](CCCNC(=N)N)C(=O)O)nn6)C(C)(C)[C@@H]5CC[C@]43C)[C@H]12 (single isomer, unassigned)",4.1,4.1,> 66,> 424,> 103,> 103,
C[C@H]1[C@H](C)CC[C@]2(C(=O)OCc3cn(CC(=O)N[C@@H](CCCNC(=N)N)C(=O)O)nn3)CC[C@]3(C)C(=CC[C@@H]4[C@@]5(C)CC[C@H](O)C(C)(C)[C@@H]5CC[C@]43C)[C@H]12,10.4,5.2,> 166,83,16,8,
NC(N)=NCCC[C@H](NC(=O)[C@@H](N)CCCN=C(N)N)C(=O)O (H-Arg-Arg-OH),> 1520,> 1520,> 1520,,,,
N=C(N)NCCC[C@H](N)C(=O)O [ARGININE],> 2890,> 2890,> 2890,,,,
C=C(C)[C@@H]1CC[C@]2(C(=O)OCc3cn(CC(=O)N[C@@H](CCCNC(=N)N)C(=O)N[C@@H](CCCNC(=N)N)C(=O)O)nn3)CC[C@]3(C)[C@H](CC[C@@H]4[C@@]5(C)CC[C@H](O)C(C)(C)[C@@H]5CC[C@]43C)[C@@H]12,8.6,4.3,> 138,,,,48
C=C(C)[C@@H]1CC[C@]2(C(=O)OCc3cn(CC(=O)N[C@@H](CCCNC(=N)N)C(=O)O)nn3)CC[C@]3(C)[C@H](CC[C@@H]4[C@@]5(C)CC[C@H](O)C(C)(C)[C@@H]5CC[C@]43C)[C@@H]12,> 166,83,> 166,397,5,,1.3
C[C@H]1[C@H](C)CC[C@]2(C(=O)O)CC[C@]3(C)C(=CC[C@@H]4[C@@]5(C)CC[C@H](OC(=O)CCc6cn(CC(=O)N[C@@H](CCCNC(=N)N)C(=O)N[C@@H](CCCNC(=N)N)C(=O)O)nn6)C(C)(C)[C@@H]5CC[C@]43C)[C@H]12,8.2,4.1,> 131,,,,
C[C@H]1[C@H](C)CC[C@]2(C(=O)O)CC[C@]3(C)C(=CC[C@@H]4[C@@]5(C)CC[C@H](OC(=O)CCc6cn(CC(=O)N[C@@H](CCCNC(=N)N)C(=O)O)nn6)C(C)(C)[C@@H]5CC[C@]43C)[C@H]12,78.6,19.6,> 157,158,8,2,
C[C@H]1[C@H](C)CC[C@]2(C(=O)O)CC[C@]3(C)C(=CC[C@@H]4[C@@]5(C)CC[C@H](O)C(C)(C)[C@@H]5CC[C@]43C)[C@H]12 [URSOLIC ACID],137,68,> 1100,,,,
H-RRRRR-OH,> 627,313,> 627,,,,
"C[C@H]1[C@H](C)CCC2(C(=O)O)CC[C@]3(C)C(=CC[C@@H]4[C@@]5(C)CC[C@H](OC(=O)CCc6cn(CC(=O)N[C@@H](CCCNC(=N)N)C(=O)N[C@@H](CCCNC(=N)N)C(=O)N[C@@H](CCCNC(=N)N)C(=O)N[C@@H](CCCNC(=N)N)C(=O)N[C@@H](CCCNC(=N)N)C(=O)O)nn6)C(C)(C)[C@@H]5CC[C@]43C)[C@H]12 (single isomer, unassigned)",5.5,2.7,> 88,,,,
"C[C@H]1[C@H](C)CCC2(C(=O)O)CC[C@]3(C)C(=CC[C@@H]4[C@@]5(C)CC[C@H](OC(=O)CCc6cn(CC(=O)N[C@@H](CCCNC(=N)N)C(=O)N[C@@H](CCCNC(=N)N)C(=O)N[C@@H](CCCNC(=N)N)C(=O)O)nn6)C(C)(C)[C@@H]5CC[C@]43C)[C@H]12 (single isomer, unassigned)",7,3.5,> 113,360,102,51,
